Values after ≈ are worked out from the molar mass of the structure shown.
Tests used:
Type in all cases: cell-based, Clostridium autoethanogenum
[1] = system: C. autoethanogenum LZ1561; assay: Selection of a 2-HIBA tolerant strain in continuous fermentation
Experimental: Microorganisms unable to cope with the increasing 2-HIBA concentration were diluted out from the fermentation system, while microorganisms with improved tolerance were retained. Glycerol stocks were collected as the culture resistance improved. CSTRs were inoculated with C. autoethanogenum LZ1561. The reactors were started in batch mode and turned to continuous mode at a dilution rate of 1.5 after approximately 40 hours. Once operationally stable, 2-HIBA (1.1 g/L) was added to the feeding media which was run into the reactor at a dilution rate of 1.5. […] During selection in continuous fermentation, the 2-HIBA concentration tolerated by the C. autoethanogenum LZ1561 culture was reproducibly raised from 1.1 g/L to 6.7 g/L ([…]) by slowly increasing the 2-HIBA concentration over a period of 85 days.

[2] = system: C. autoethanogenum LZ1561; assay: Growth of C. autoethanogenum LZ1561 challenged with 2-HIBA in serum bottles; set-up: growth rate μ, Set 1 / growth rate μ, Set 2: unit not given here
Experimental: Clostridium strains were grown at 37° C. in PETC media at pH 5.6 using standard anaerobic techniques (Hungate, Meth Microbiol, 3B: 117-132, 1969; Wolfe, Adv Microb Physiol, 6: 107-146, 1971). Fructose (heterotrophic growth) or 30 psi CO-containing steel mill gas (collected from New Zealand Steel site in Glenbrook, NZ; composition: 44% CO, 32% N2, 22% CO2, 2% H2) in the headspace (autotrophic growth) was used as substrate. For solid media, 1.2% bacto agar (BD, Frankton Lakes, N.J. 07417, USA) was added.
Two sets of serum bottle experiments were performed with media containing 0, 0.5, 1, 1.5, 2, 3, or 4 g/L of 2-HIBA. An average of optical density (OD) data from both sets of growth experiments was plotted. Data points outside the visually observed exponential growth phase were removed and the growth rate (g) for each concentration of 2-HIBA was calculated by fitting an exponential trend line (FIG. 1).
FIGS. 1A-1D show the growth rates of C. autoethanogenum challenged with different concentrations of 2-HIBA. FIG. 1A and FIG. 1B show the respective difference in growth curves for the two sets of growth experiments (n=3). FIG. 1C and FIG. 1D show exponentially fitted lines corresponding to FIG. 1A and FIG. 1B, respectively. […] To extract the growth rate from the trend line equations, the following equation was used OD=OD0Xe^μt, where OD=y, t=x in the trend line equations, providing the calculated growth rates listed below.
The growth rates (μ) were plotted in Prism6 (GraphPad, USA) as μ vs log10 [2-HIBA] to determine the concentration of 2-HIBA at which the growth rate of C. autoethanogenum is 50% (FIG. 2).

[3] = system: C. autoethanogenum; assay: Toxicity of 2-HIBA under continuous fermentation (CSTR), gas uptake and metabolite monitoring; conditions: early effect on gas uptake and metabolite production
Source text: CSTRs were inoculated with C. autoethanogenum and brought to a stable optical density (OD600 nm) and dilution rate (D˜1.5). For all fermentations in CSTRs, chemically defined media was used containing no yeast extract. Parameters were monitored on an hourly basis, including metabolites (measured by HPLC) and gas composition in/out (measured by GC). Early effects of 2-HIBA on culture metabolism included a measurable reduction in CO and/or H2 utilization rates, followed by a decline in metabolite production rate. Two CSTRs were run in parallel and received the same inoculum and media in flow rate and composition. The reactors were turned continuous at day 0.9 with media containing 1.5 g/L 2-HIBA at a dilution rate of 1.5. […] The process was then repeated on the same culture in one reactor while the other served as a control. Following introduction of 2-HIBA, the metabolic profile of C. autoethanogenum shifted to favor 2,3-butanediol production, capping ethanol production. Biomass production was reduced under increasing inflow from 2-HIBA and overall metabolic levels drop caused by reduced CO and H2 uptake. By removing 2-HIBA from the inflow media, gas uptake and metabolic production is stabilized. This indicates a reversible reaction to 2-HIBA. The average effect level of 2-HIBA in a continuous CSTR system was calculated as 1.15 g/L.

- IC50 ([2]; Clostridium autoethanogenum, LZ1561, μ vs log10 [2-HIBA], read-out: IC50 (concentration of 2-HIBA at which the growth rate is 50%)): 2200 µg/mL (≈ 21.1 mM)
Compound: CC(C)(O)C(=O)O [2-HIBA, 2-hydroxyisobutyric acid]
- increase in tolerance ([1]; 1.1 g/L to 6.7 g/L during selection in continuous fermentation): 600%
- 2-HIBA concentration tolerated by the culture ([1]; C. autoethanogenum LZ1561 culture at start of selection): 1.1 g/L
- 2-HIBA concentration tolerated by the culture ([1]; after slowly increasing the 2-HIBA concentration over a period of 85 days): 6.7 g/L
- growth rate μ, Set 1 ([2]; [2-HIBA] 0.5 g/L): 0.096
- growth rate μ, Set 2 ([2]; [2-HIBA] 0.5 g/L): 0.104
- growth rate μ, Set 1 ([2]; [2-HIBA] 1 g/L): 0.092
- growth rate μ, Set 2 ([2]; [2-HIBA] 1 g/L): 0.105
- growth rate μ, Set 1 ([2]; [2-HIBA] 1.5 g/L): 0.078
- growth rate μ, Set 2 ([2]; [2-HIBA] 1.5 g/L): 0.089
- growth rate μ, Set 1 ([2]; [2-HIBA] 2 g/L): 0.082
- growth rate μ, Set 2 ([2]; [2-HIBA] 2 g/L): 0.090
- growth rate μ, Set 1 ([2]; [2-HIBA] 3 g/L): 0.001
- growth rate μ, Set 2 ([2]; [2-HIBA] 3 g/L): 0.004
- growth rate μ, Set 1 ([2]; [2-HIBA] 4 g/L): 0.004
- growth rate μ, Set 2 ([2]; [2-HIBA] 4 g/L): −0.005
- effect on growth ([2]; concentration up to 1 g/L of 2-HIBA): little or no effect
- effect on growth ([2]; over 2 g/L of 2-HIBA): acute
- effect on growth ([2]; up to a concentration of 2 g/L of 2-HIBA): relatively small effect
- average effect level of 2-HIBA in a continuous CSTR system [3]: 1.15 g/L
